# In ChEMBL document CHEMBL1122477, “Neuroleptic activity and dopamine-uptake inhibition in 1-piperazino-3-phenylindans” (J Med Chem, 1983):
# Assays:
# [1] = organism: Rattus norvegicus; assay: animal or person; conditions: po
# Description: (§1) Ability to induce catalepsy in rats perorally, an effect normally related to clinical extrapyramidal side effects
# [2] = organism: Mus musculus
# Description: (§2) Compound (administered intraperitoneally) was assessed for neuroleptic activity to antagonize methyl phenidate induced stereotypes in mice
# [3] = molecular target: T1, Sodium-dependent serotonin transporter (Rattus norvegicus, UniProt P31652)
# [4] = molecular target: Adrenergic receptor beta (Rattus norvegicus, UniProt P18090+P10608+P26255)
# Description: (§3) Effect on synaptosomal uptake inhibition of Noradrenaline (NA)
# [5] = test system: Rattus norvegicus; assay: Tested orally in rats for antagonism of stereotypies induced by amphetamine; type: functional
# [6] = organism: Mus musculus; assay: animal or person; conditions: ip
# Description: as §2
# [7] = organism: Rattus norvegicus
# Description: as §1
# [8] = molecular target: Norepinephrine transporter (Rattus norvegicus, UniProt Q9WTR4)
# Description: as §3
# [9] = molecular target: T1, Sodium-dependent serotonin transporter; assay: Effect on synaptosomal uptake inhibition of 5-hydroxytryptamine (5-HT); type: functional
# [10] = molecular target: Dopamine receptor
# Description: Effect on synaptosomal uptake inhibition of Dopamine receptor
# [11] = organism: Mus musculus; assay: Assessed for thymoleptic activity by its ability to antagonize tetrabenazine ptosis in mice; type: functional
# [12] = molecular target: Sodium-dependent dopamine transporter (Rattus norvegicus, UniProt P23977)
# Description: Effect on synaptosomal uptake inhibition of Dopamine transporter
# [13] = Rattus norvegicus, po, read-out: ED50
# Sequence of Sodium-dependent dopamine transporter (P23977 whole entry): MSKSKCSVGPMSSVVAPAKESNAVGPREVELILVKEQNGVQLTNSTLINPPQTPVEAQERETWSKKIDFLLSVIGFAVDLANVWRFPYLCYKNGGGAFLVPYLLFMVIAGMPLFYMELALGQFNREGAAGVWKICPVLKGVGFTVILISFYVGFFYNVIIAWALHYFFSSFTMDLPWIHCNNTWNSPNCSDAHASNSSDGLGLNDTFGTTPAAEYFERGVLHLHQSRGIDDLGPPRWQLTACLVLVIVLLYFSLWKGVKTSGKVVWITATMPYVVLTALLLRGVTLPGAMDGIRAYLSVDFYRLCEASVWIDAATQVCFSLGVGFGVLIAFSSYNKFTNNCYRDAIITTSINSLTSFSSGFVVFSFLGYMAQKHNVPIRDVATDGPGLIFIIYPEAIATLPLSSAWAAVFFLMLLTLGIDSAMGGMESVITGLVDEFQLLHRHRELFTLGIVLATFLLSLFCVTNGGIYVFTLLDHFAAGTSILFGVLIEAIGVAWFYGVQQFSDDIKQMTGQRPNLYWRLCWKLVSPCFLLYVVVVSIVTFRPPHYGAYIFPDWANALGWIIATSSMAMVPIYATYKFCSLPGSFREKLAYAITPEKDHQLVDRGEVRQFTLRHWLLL
# Sequence of Norepinephrine transporter (Q9WTR4 whole entry): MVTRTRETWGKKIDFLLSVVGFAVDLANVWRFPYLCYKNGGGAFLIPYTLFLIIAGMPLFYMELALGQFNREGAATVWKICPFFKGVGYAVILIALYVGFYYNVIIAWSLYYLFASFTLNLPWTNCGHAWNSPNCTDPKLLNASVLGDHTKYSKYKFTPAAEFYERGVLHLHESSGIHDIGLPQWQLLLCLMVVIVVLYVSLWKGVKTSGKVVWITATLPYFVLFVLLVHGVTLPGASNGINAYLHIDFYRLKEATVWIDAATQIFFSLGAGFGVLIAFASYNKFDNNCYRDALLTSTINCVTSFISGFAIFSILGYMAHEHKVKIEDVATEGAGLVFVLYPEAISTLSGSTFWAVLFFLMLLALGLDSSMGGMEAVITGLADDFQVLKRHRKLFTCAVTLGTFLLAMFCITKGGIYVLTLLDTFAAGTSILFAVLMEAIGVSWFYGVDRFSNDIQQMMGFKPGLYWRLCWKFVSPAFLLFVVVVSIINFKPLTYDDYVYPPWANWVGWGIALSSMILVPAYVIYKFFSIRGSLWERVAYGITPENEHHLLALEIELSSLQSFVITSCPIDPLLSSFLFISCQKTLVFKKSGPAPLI
# T1 sequence (P31652 whole entry): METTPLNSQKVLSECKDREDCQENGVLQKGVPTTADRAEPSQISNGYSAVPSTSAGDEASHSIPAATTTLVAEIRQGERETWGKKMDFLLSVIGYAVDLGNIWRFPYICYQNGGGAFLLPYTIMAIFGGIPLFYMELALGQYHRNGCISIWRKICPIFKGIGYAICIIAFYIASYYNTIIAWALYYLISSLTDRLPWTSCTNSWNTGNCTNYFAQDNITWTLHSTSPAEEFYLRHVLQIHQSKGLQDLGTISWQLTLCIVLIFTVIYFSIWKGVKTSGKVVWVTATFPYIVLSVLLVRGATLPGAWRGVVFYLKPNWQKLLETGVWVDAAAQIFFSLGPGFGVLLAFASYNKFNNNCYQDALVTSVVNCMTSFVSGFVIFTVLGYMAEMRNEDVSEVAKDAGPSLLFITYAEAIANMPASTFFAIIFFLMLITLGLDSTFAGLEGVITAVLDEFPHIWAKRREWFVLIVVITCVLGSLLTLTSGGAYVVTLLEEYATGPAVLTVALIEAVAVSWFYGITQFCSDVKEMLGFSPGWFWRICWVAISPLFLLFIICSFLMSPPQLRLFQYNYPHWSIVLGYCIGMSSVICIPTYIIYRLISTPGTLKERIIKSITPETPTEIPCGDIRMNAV
SMILES,ED50 [1],ED50 [2],ED50 [6],"ED50 [5, 13]",other results
Cl.Cl.OCCN1CCN(C2CC(c3ccc(F)cc3)c3ccc(F)cc32)CC1 (configuration not stated),184 µmol/kg,7 µM/kg,,,IC50 [3]: 2300 nM; IC50 [4]: 150 nM; ED50 [5]: 14 µM/kg
CSc1ccc2c(c1)C(N1CCN(CCO)CC1)CC2c1ccc(F)cc1 (configuration not stated),14 µmol/kg,,2.8 µmol/kg,20 µmol/kg,
Cl.Cl.OCCCN1CCN(C2CC(c3ccc(F)cc3)c3ccc(F)cc32)CC1 (configuration not stated),8.3 µmol/kg,3.7 µM/kg,,5.2 µmol/kg,
OCCN1CCN(C2CC(c3ccc(F)cc3)c3ccc(F)cc32)CC1 (configuration not stated),,>112 µM/kg,,,IC50 [3]: 9700 nM; IC50 [4]: 140 nM; ED50 [5]: >112 µM/kg
OCC(O)CN1CCN(C2CC(c3ccc(F)cc3)c3ccc(F)cc32)CC1 (configuration not stated),,>51 µM/kg,,,ED50 [7]: >102 µM/kg
OCCCN1CCN(C2CC(c3ccc(Cl)c(Cl)c3)c3ccccc32)CC1 (configuration not stated),,,,,IC50 [8]: 6.8 nM; IC50 [9]: 120 nM; IC50 [10]: 15 nM; ED50 [11]: 12 µM/kg
Cl.Cl.OCCCN1CCN(C2CC(c3ccc(Cl)c(Cl)c3)c3ccccc32)CC1 (configuration not stated),,,,,IC50 [8]: 0.3 nM; IC50 [9]: 440 nM; IC50 [10]: 5.6 nM; ED50 [11]: 71 µM/kg
OCCN1CCN(C2CC(c3ccc(F)cc3)c3ccccc32)CC1 (configuration not stated),,,> 118 µmol/kg,,
CCN1CCN(C2CC(c3ccc(F)cc3)c3ccc(F)cc32)CC1.Cl.Cl (cis isomer),,>96 µM/kg,,,
Cl.Cl.OCCN1CCN(C2CC(c3ccc(F)cc3)c3ccc(C(F)(F)F)cc32)CC1 (cis isomer),,>80 µM/kg,,,ED50 [7]: >166 µM/kg; IC50 [12]: 93 nM
Cl.Cl.OCCN1CCN(C2CC(c3ccc(Cl)cc3Cl)c3ccccc32)CC1 (cis isomer),,,,,IC50 [10]: 2000 nM; ED50 [11]: >94 µM/kg
Cl.Cl.Clc1ccc(C2CC(N3CCN(C/C=C/c4ccccc4)CC3)c3ccccc32)cc1Cl (cis isomer),,,,,IC50 [10]: 35 nM; ED50 [11]: >73 µM/kg
Cl.Cl.OCCN1CCN(C2CC(c3ccc(Cl)c(Cl)c3)c3ccccc32)CC1 (cis isomer),,,,,"IC50 [8]: 10 nM; IC50 [9]: 600 nM; IC50 [10]: 12 nM; ED50 ([11]; Mus musculus, read-out: ED50): 72 µmol/kg"
Fc1ccc(C2CC(N3CCN(CCc4ccccc4)CC3)c3cc(F)ccc32)cc1 (cis isomer),,>95 µM/kg,,,
OCCCN1CCN(C2CC(c3ccc(F)cc3)c3ccc(F)cc32)CC1 (cis isomer),,>90 µM/kg,,,
Cc1ccc([C@@H]2C[C@@H](N3CCN(CCO)CC3)c3cc(C(F)(F)F)ccc32)cc1 (relative stereo),> 81 µmol/kg,,42 µmol/kg,64 µmol/kg,
OCCN1CCN([C@@H]2C[C@@H](c3ccccc3)c3ccc(C(F)(F)F)cc32)CC1 (relative stereo),5.7 µmol/kg,,4.7 µmol/kg,10.4 µmol/kg,
CN(C)C[C@H]1C2CCC(CC2)[C@H]1c1ccc(Cl)c(Cl)c1 (relative stereo),,,,,IC50 [9]: 13 nM
OCCN1CCN([C@@H]2C[C@@H](c3ccc(Cl)cc3)c3ccc(Cl)cc32)CC1 (relative stereo),> 86 µmol/kg,,> 86 µmol/kg,,

SMILES,ED50 [1],ED50 [2],ED50 [6],"ED50 [5, 13]",other results
OCCN1CCN([C@@H]2C[C@@H](c3ccc(Cl)cc3)c3ccc(C(F)(F)F)cc32)CC1 (relative stereo),29 µmol/kg,,40 µmol/kg,22 µmol/kg,
"CN1CCN(C2CC(c3ccc(Cl)c(Cl)c3)c3ccccc32)CC1.Cl.Cl (single isomer, unassigned; 95)",,,,,IC50 [8]: 120 nM; IC50 [9]: 2500 nM; IC50 [10]: 340 nM; ED50 [11]: >91 µM/kg
"CN1CCN(C2CC(c3ccc(Cl)c(Cl)c3)c3ccccc32)CC1.Cl.Cl (single isomer, unassigned; 96)",,,,,IC50 [8]: 7.8 nM; IC50 [9]: 230 nM; IC50 [10]: 10 nM; ED50 [11]: 26 µM/kg
"CN1CCN(C2CC(c3ccc(Cl)c(Cl)c3)c3ccccc32)CC1.Cl.Cl (single isomer, unassigned; 99)",,,,,IC50 [8]: 2.5 nM; IC50 [9]: 530 nM; IC50 [10]: 2.3 nM; ED50 [11]: 69 µM/kg
"CN1CCN(C2CC(c3ccc(F)cc3)c3ccc(F)cc32)CC1.Cl.Cl (single isomer, unassigned; (+))",,2.5 µM/kg,,,IC50 [3]: 4000 nM; ED50 [5]: 15 µM/kg; ED50 [7]: 41 µM/kg; IC50 [12]: 1800 nM
CN1CCN(C2CCC(c3ccc(F)cc3)c3ccc(F)cc32)CC1 (stereo in doubt; 3b),,,> 96 µmol/kg,,
CN1CCN(C2CC(c3ccc(F)cc3)c3ccc(F)cc32)CC1.Cl.Cl (stereo in doubt; 53),,11 µM/kg,,,IC50 [3]: 2000 nM; ED50 [5]: 37 µM/kg; ED50 [7]: 202 µM/kg; IC50 [12]: 180 nM
CN1CCN(C2CC(c3ccc(F)cc3)c3ccc(F)cc32)CC1.Cl.Cl (stereo in doubt; 55),,42 µM/kg,,,IC50 [3]: 630 nM; ED50 [5]: >200 µM/kg; ED50 [7]: >790 µM/kg; IC50 [12]: 88 nM
CN1CCN(C2CC(c3ccc(F)cc3)c3ccc(F)cc32)CC1.Cl.Cl (stereo in doubt; 56),,>95 µM/kg,,,IC50 [3]: 6100 nM; ED50 [5]: >95 µM/kg; IC50 [12]: 110 nM
Cl.Cl.Fc1ccc(C2CC(N3CCN(CC4CC4)CC3)c3cc(F)ccc32)cc1 (stereo in doubt; 59),53 µmol/kg,11 µM/kg,,36 µmol/kg,
Cl.Cl.Fc1ccc(C2CC(N3CCN(CC4CC4)CC3)c3cc(F)ccc32)cc1 (stereo in doubt; 60),,>91 µM/kg,,,
Fc1ccc(C2CC(N3CCN(C/C=C/c4ccccc4)CC3)c3cc(F)ccc32)cc1 (stereo in doubt; 63),,,57 µmol/kg,,IC50 [3]: 160 nM; IC50 [12]: 340 nM
Cl.Cl.Fc1ccc(C2CC(N3CCN(C/C=C/c4ccccc4)CC3)c3cc(F)ccc32)cc1 (stereo in doubt; 64),,>79 µM/kg,,,IC50 [3]: 400 nM; IC50 [12]: 210 nM
CC(O)CN1CCN(C2CC(c3ccc(F)cc3)c3ccc(F)cc32)CC1.Cl.Cl (stereo in doubt; 71),37 µmol/kg,2.8 µM/kg,,12 µmol/kg,
CC(O)CN1CCN(C2CC(c3ccc(F)cc3)c3ccc(F)cc32)CC1.Cl.Cl (stereo in doubt; 72),,45 µM/kg,,,
Cl.Cl.OCC(CO)N1CCN(C2CC(c3ccc(F)cc3)c3ccc(F)cc32)CC1 (stereo in doubt; 77),,>43 µM/kg,,,
CN1CCN(C2CC(c3ccc(Cl)c(Cl)c3)c3ccccc32)CC1.Cl.Cl (stereo in doubt; 97),,,,,IC50 [8]: 7.7 nM; IC50 [9]: 630 nM; IC50 [10]: 4.4 nM; ED50 [11]: 100 µM/kg
Cl.Cl.Clc1ccc(C2CC(N3CCN(C/C=C/c4ccccc4)CC3)c3ccccc32)cc1Cl (stereo in doubt; 104),,,,,"IC50 [10]: 100 nM; ED50 ([11]; Mus musculus, read-out: ED50): > 75 µmol/kg"
CCN1CCN(C2CC(c3ccc(F)cc3)c3ccc(F)cc32)CC1.Cl.Cl (trans isomer),53 µmol/kg,7 µM/kg,,14 µmol/kg,

SMILES,ED50 [1],ED50 [2],ED50 [6],"ED50 [5, 13]",other results
Cl.Cl.OCC(CO)N1CCN(C2CC(c3ccc(F)cc3)c3ccc(F)cc32)CC1 (trans isomer),124 µmol/kg,4.2 µM/kg,,25 µmol/kg,
CC(C)(O)CN1CCN(C2CC(c3ccc(F)cc3)c3ccc(F)cc32)CC1 (trans isomer),,,> 87 µmol/kg,30 µmol/kg,
N#CCCN1CCN(C2CC(c3ccc(F)cc3)c3ccc(F)cc32)CC1 (trans isomer),,,73 µmol/kg,> 91 µmol/kg,
NC(=O)CN1CCN(C2CC(c3ccc(F)cc3)c3ccc(F)cc32)CC1 (trans isomer),,,> 88 µmol/kg,,
OCCN1CCN(C2CC(c3ccc(F)cc3)c3cc(F)ccc32)CC1 (trans isomer),> 93 µmol/kg,,14 µmol/kg,> 93 µmol/kg,
COc1ccc2c(c1)C(N1CCN(CCO)CC1)CC2c1ccc(F)cc1 (trans isomer),102 µmol/kg,,19 µmol/kg,38 µmol/kg,
CC(C)c1ccc2c(c1)C(N1CCN(CCO)CC1)CC2c1ccc(F)cc1 (trans isomer),17 µmol/kg,,9.6 µmol/kg,26 µmol/kg,
Cc1ccc2c(c1)C(N1CCN(CCO)CC1)CC2c1ccc(F)cc1 (trans isomer),17 µmol/kg,,7.6 µmol/kg,21 µmol/kg,
CS(=O)(=O)c1ccc2c(c1)C(N1CCN(CCO)CC1)CC2c1ccc(F)cc1 (trans isomer),,,20 µmol/kg,,
Cl.Cl.OCC(O)CN1CCN(C2CC(c3ccc(F)cc3)c3ccc(F)cc32)CC1 (trans isomer),,2.9 µM/kg,,33 µmol/kg,ED50 [7]: >280 µM/kg
Cl.Cl.OCCN1CCN(C2CC(c3ccc(Cl)cc3Cl)c3ccccc32)CC1 (trans isomer),,,,,"IC50 [10]: 4500 nM; ED50 ([11]; Mus musculus, read-out: ED50): > 86 µmol/kg"
OCCN1CCN(C2CC(c3ccc(F)cc3)c3ccc(Cl)cc32)CC1 (trans isomer),3.3 µmol/kg,,2.8 µmol/kg,3.5 µmol/kg,
CN1CCN(C2CC(c3ccc(Cl)c(Cl)c3)c3ccccc32)CC1.Cl.Cl (trans isomer),,,,,IC50 [8]: 32 nM; IC50 [9]: 200 nM; IC50 [10]: 11 nM; ED50 [11]: 48 µM/kg
Cl.Cl.OCCN1CCN(C2CC(c3ccc(Cl)c(Cl)c3)c3ccccc32)CC1 (trans isomer),,,,,IC50 [8]: 8.2 nM; IC50 [9]: 210 nM; IC50 [10]: 2.8 nM; ED50 [11]: 45 µM/kg
CN1CCN(C2CCC(c3ccc(F)cc3)c3ccc(F)cc32)CC1 (trans isomer),,>117 µM/kg,,,
Fc1ccc(C2CC(N3CCN(CCc4ccccc4)CC3)c3cc(F)ccc32)cc1 (trans isomer),,37 µM/kg,,,
CN1CCN(C2Cc3ccccc3Sc3ccc(Cl)cc32)CC1 (configuration not stated) [CLOROTEPINE],4.5 µmol/kg,,6.7 µmol/kg,0.56 µmol/kg,
CN1Cc2c(N)cccc2C(c2ccccc2)C1 (configuration not stated) [NOMIFENSINE],,,,,IC50 [8]: 6.6 nM; IC50 [10]: 48 nM
